Structures can show the parent of a compound that is named as a salt.

The target of the assay is wild type human HSD17B13 (Homo sapiens (Human), UniProt Q7Z5P4). Put plainly: HEK_Beta-Est LCMS_IC50_Tekcel, whole-cell HEK-HSD17B13 inhibition assay, estrone production by LCMS. Format: cell-based. The following applies: geometric mean, HEK cells stably expressing wild type human HSD17B13, 25 μM FAC beta-estradiol, read-out: HEK_Beta-Est LCMS_IC50—Tekcel GMean IC50. The protocol: HEK_Beta-Est LCMS_IC50_Tekcel
Sequence of wild type human HSD17B13 (Q7Z5P4 20-300): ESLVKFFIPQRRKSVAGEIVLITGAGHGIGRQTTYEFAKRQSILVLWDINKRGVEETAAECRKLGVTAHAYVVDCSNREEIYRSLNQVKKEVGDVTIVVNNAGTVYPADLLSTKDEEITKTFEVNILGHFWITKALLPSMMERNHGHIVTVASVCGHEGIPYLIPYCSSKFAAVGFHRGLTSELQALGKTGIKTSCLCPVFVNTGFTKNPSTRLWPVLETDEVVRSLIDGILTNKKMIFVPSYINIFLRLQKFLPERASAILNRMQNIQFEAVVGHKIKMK
Inhibition potency of test compounds was determined using a whole-cell HEK-HSD17B13 inhibition assay, utilizing a LCMS readout.
HSD17B13 uses the oxidized form of nicotinamide adenine dinucleotide (NAD+) as a cofactor during metabolism of beta-estradiol (substrate), converting NAD+ to the reduced form (NADH) and beta-estradiol to its product (estrone). Estrone production is quantified by LCMS, and used as a measure of HSD17B13 enzyme activity.
([…]: 5% CO2). […] Growth media was then removed from the cell plates and replaced with 10 μL of 2×FAC test compound, and incubated for 1 hour (with lid) at 37° C. […] The reaction was incubated for 2 hours (with lid) at 37° C. […] Amount of product (estrone) was then quantified by LCMS. Data expressed as product area ratio (PAR) were then normalized to control wells using Activity Base (IDBS). Zero percent effect (ZPE) was defined as PAR generated from uninhibited HSD17B13 (vehicle control).
In the case of `O=C(NC[C@]12CC[C@](c3nc(-c4ncc(C(F)(F)F)cn4)no3)(CC1)CC2)c1cc(F)c(O)c(F)c1` [Example 203, 3,5-difluoro-4-hydroxy-N-[(4-{3-[5-(trifluoromethyl)pyrimidin-2-yl]-1,2,4-oxadiazol-5-yl}bicyclo[2.2.2]octan-1-yl)methyl]benzamide], the half-inhibitory concentration (IC50) was 98 nM.
As for `Cc1nc(-c2ccc3cn([C@H]4CC[C@H](CNC(=O)c5cc(F)c(O)c(F)c5)CC4)nc3c2)cs1` [Example 94, 3,5-difluoro-4-hydroxy-N-({(1r,4r)-4-[6-(2-methyl-1,3-thiazol-4-yl)-2H-indazol-2-yl]cyclohexyl}methyl) benzamide], the figure is 140 nM; as for `Cc1cn(-c2ccc3cn([C@H]4CC[C@H](CNC(=O)c5cc(F)c(O)c(F)c5F)CC4)nc3c2)cn1` [Example 163, 2,3,5-trifluoro-4-hydroxy-N-({(1r,4r)-4-[6-(4-methyl-1H-imidazol-1-yl)-2H-indazol-2-yl]cyclo-hexyl}methyl) benzamide], 330 nM; as for `Cc1cccc(-c2ccc3cn([C@H]4CC[C@H](CNC(=O)c5cc(F)c(O)c(F)c5)CC4)nc3c2)n1` [Example 118, 3,5-difluoro-4-hydroxy-N-({(1r,4r)-4-[6-(6-methylpyridin-2-yl)-2H-indazol-2-yl]cyclohexyl}methyl) benzamide, trifluoroacetate salt], 230 nM.
Regarding `COc1ccc(-c2ccc3cn([C@H]4CC[C@H](CNC(=O)c5cc(F)c(O)c(F)c5)CC4)nc3c2)nc1` [Example 99, 3,5-difluoro-4-hydroxy-N-({(1r,4r)-4-[6-(5-methoxy-pyridin-2-yl)-2H-indazol-2-yl]cyclohexyl}methyl) benzamide, trifluoroacetate salt], the half-inhibitory concentration (IC50) came out at 220 nM.
With `O=C(NC[C@H]1CC[C@H](n2cc3ccc(-c4cc(C5CC5)ncn4)cc3n2)CC1)c1cc(F)c(O)c(F)c1` [Example 93, N-({(1r,4r)-4-[6-(6-cyclopropylpyrimidin-4-yl)-2H-indazol-2-yl]cyclohexyl}methyl)-3,5-difluoro-4-hydroxybenzamide], the IC50 was 180 nM.
As for `Cc1ncc(-c2ccc3cn([C@H]4CC[C@H](CNC(=O)c5cc(F)c(O)c(F)c5)CC4)nc3c2)s1` [Example 88, 3,5-difluoro-4-hydroxy-N-({(1r,4r)-4-[6-(2-methyl-1,3-thiazol-5-yl)-2H-indazol-2-yl]cyclohexyl}methyl)benzamide], the IC50 is 170 nM.
Regarding `O=C(NC[C@]12CC[C@](n3cc4ccc(Br)cc4n3)(CC1)CC2)c1cc(F)c(O)c(F)c1` [Example 205, N-{[4-(6-bromo-2H-indazol-2-yl)bicyclo[2.2.2]octan-1-yl]methyl}-3,5-difluoro-4-hydroxybenzamide], the IC50 is 220 nM.
Turning to `O=C(NC[C@H]1CC[C@H](n2cc3cc(Cl)ccc3n2)CC1)c1cc(F)c(O)c(F)c1F` [Example 26, N-{[(1r,4r)-4-(5-chloro-2H-indazol-2-yl)cyclohexyl]methyl}-2,3,5-trifluoro-4-hydroxybenzamide], the IC50 came to 190 nM.
`Cc1cc(-c2ccc3cn([C@H]4CC[C@H](CNC(=O)c5cc(F)c(O)c(F)c5)CC4)nc3c2)ccn1` [Example 81, 3,5-difluoro-4-hydroxy-N-({(1r,4r)-4-[6-(2-methylpyridin-4-yl)-2H-indazol-2-yl]cyclohexyl}methyl) benzamide, trifluoroacetate salt]: the IC50 is 120 nM.
In the case of `COc1ccnc(-c2ccc3cn([C@H]4CC[C@H](CNC(=O)c5cc(F)c(O)c(F)c5)CC4)nc3c2)n1` [Example 95, 3,5-difluoro-4-hydroxy-N-({(1r,4r)-4-[6-(4-methoxypyrimidin-2-yl)-2H-indazol-2-yl]cyclohexyl}methyl)benzamide], the half-inhibitory concentration (IC50) was 240 nM.
With `CC(C)(C)OC(=O)N[C@]12CC[C@](CNC(=O)c3cc(F)c(O)c(F)c3)(CC1)CC2` [Example 192, tert-butyl {4-[(3,5-difluoro-4-hydroxybenzamido)methyl]bicyclo[2.2.2]octan-1-yl}carbamate], the 50% inhibitory concentration (IC50) was found to be 480 nM.
For the compound `O=C(NC[C@H]1CC[C@H](n2cc3ccc(-c4cnc(C(F)(F)F)cn4)cc3n2)CC1)c1cc(F)c(O)c(F)c1` [Example 78, 3,5-difluoro-4-hydroxy-N-{[(1r,4r)-4-{6-[5-(trifluoromethyl)pyrazin-2-yl]-2H-indazol-2-yl}cyclohexyl]methyl} benzamide], the concentration for half-maximal inhibition (IC50) was determined as 190 nM.
For `Cc1nnc(-c2ccc3cn([C@H]4CC[C@H](CNC(=O)c5cc(F)c(O)c(F)c5)CC4)nc3c2)s1` [Example 102, 3,5-difluoro-4-hydroxy-N-({(1r,4r)-4-[6-(5-methyl-1,3,4-thiadiazol-2-yl)-2H-indazol-2-yl]cyclohexyl}methyl) benzamide, ammonium salt], the IC50 turned out to be 200 nM.
Turning to `O=C(NC[C@H]1CC[C@H](n2cc3ccc(-c4ncc(C(F)F)s4)cc3n2)CC1)c1cc(F)c(O)c(F)c1` [Example 91, N-{[(1r,4r)-4-{6-[5-(difluoromethyl)-1,3-thiazol-2-yl]-2H-indazol-2-yl}cyclohexyl]methyl}-3,5-difluoro-4-hydroxybenzamide], the half-inhibitory concentration (IC50) is 280 nM.
In the case of `O=C(NC[C@H]1CC[C@H](n2cc3ccc(-c4cncs4)cc3n2)CC1)c1cc(F)c(O)c(F)c1` [Example 96, 3,5-difluoro-4-hydroxy-N-({(1r,4r)-[6-(1,3-thiazol-5-yl)-2H-indazol-2-yl]cyclohexyl}methyl)benzamide], the IC50 was 85 nM.
Regarding `Cn1cc(-c2ccc3cn([C@H]4CC[C@H](CNC(=O)c5cc(F)c(O)c(F)c5)CC4)nc3c2)ccc1=O` [Example 104, 3,5-difluoro-4-hydroxy-N-({(1r,4r)-4-[6-(1-methyl-6-oxo-1,6-dihydropyridin-3-yl)-2H-indazol-2-yl]cyclohexyl}methyl) benzamide], the IC50 is 370 nM.
As to `COc1ccc(-c2ccc3cn([C@H]4CC[C@H](CNC(=O)c5cc(F)c(O)c(F)c5)CC4)nc3c2)cn1` [Example 108, 3,5-difluoro-4-hydroxy-N-({(1r,4r)-4-[6-(6-methoxy-pyridin-3-yl)-2H-indazol-2-yl]cyclohexyl}methyl) benzamide, trifluoroacetate salt], the IC50 came to 140 nM.
As to `COc1cncc(-c2ccc3cn([C@H]4CC[C@H](CNC(=O)c5cc(F)c(O)c(F)c5)CC4)nc3c2)c1` [Example 120, 3,5-difluoro-4-hydroxy-N-({(1r,4r)-4-[6-(5-methoxypyridin-3-yl)-2H-indazol-2-yl]cyclohexyl}methyl) benzamide, trifluoroacetate salt], the IC50 came out at 250 nM.
Regarding `CC(C)c1ncc(-c2ccc3cn([C@H]4CC[C@H](CNC(=O)c5cc(F)c(O)c(F)c5)CC4)nc3c2)o1` [Example 121, 3,5-difluoro-4-hydroxy-N-{[(1r,4r)-4-{6-[2-(propan-2-yl)-1,3-oxazol-5-yl]-2H-indazol-2-yl}cyclohexyl]methyl} benzamide], the IC50 is 150 nM.
Then `O=C(NC[C@H]1CC[C@H](n2cc3ccc(-c4ccns4)cc3n2)CC1)c1cc(F)c(O)c(F)c1` [Example 83, 3,5-difluoro-4-hydroxy-N-({(1r,4r)-4-[6-(1,2-thiazol-5-yl)-2H-indazol-2-yl]cyclohexyl}methyl) benzamide], with 94 nM; and `COc1nccc(-c2ccc3cn([C@H]4CC[C@H](CNC(=O)c5cc(F)c(O)c(F)c5)CC4)nc3c2)n1` [Example 109, 3,5-difluoro-4-hydroxy-N-({(1r,4r)-4-[6-(2-methoxy-pyrimidin-4-yl)-2H-indazol-2-yl]cyclohexyl}methyl) benzamide], with 170 nM; and `Cn1cc(-c2ccc3nc([C@H]4CC[C@H](CNC(=O)c5cc(F)c(O)c(F)c5F)CC4)cn3c2)cn1` [Example 29, 2,3,5-trifluoro-4-hydroxy-N-({(1r,4r)-4-[6-(1-methyl-1H-pyrazol-4-yl)imidazo[1,2-a]pyridin-2-yl]cyclohexyl}methyl)benzamide], with 350 nM.
As to `O=C(NC[C@H]1CC[C@H](n2cc3ccc(-c4cnn(CC(F)F)c4)cc3n2)CC1)c1cc(F)c(O)c(F)c1` [Example 10, N-{[(1r,4r)-4-{6-[1-(2,2-Difluoroethyl)-1H-pyrazol-4-yl]-2H-indazol-2-yl}cyclohexyl]methyl}-3,5-difluoro-4-hydroxybenzamide, trifluoroacetate salt], the IC50 turned out to be 120 nM.
As for `O=C(NC[C@H]1CC[C@H](n2cc3ccc(-c4cnoc4)cc3n2)CC1)c1cc(F)c(O)c(F)c1` [Example 111, 3,5-difluoro-4-hydroxy-N-({(1r,4r)-4-[6-(1,2-oxazol-4-yl)-2H-indazol-2-yl]cyclohexyl}methyl) benzamide], the figure is 81 nM; as for `O=C(NC[C@H]1CC[C@H](n2cc3ccc(-c4ncns4)cc3n2)CC1)c1cc(F)c(O)c(F)c1` [Example 82, 3,5-difluoro-4-hydroxy-N-({(1r,4r)-4-[6-(1,2,4-thiadiazol-5-yl)-2H-indazol-2-yl]cyclohexyl}methyl) benzamide], 120 nM; as for `COc1ncc(-c2cc3cn([C@H]4CC[C@H](CNC(=O)c5cc(F)c(O)c(F)c5)CC4)nc3cn2)cn1` [Example 201, 3,5-difluoro-4-hydroxy-N-({(1r,4r)-4-[5-(2-methoxypyrimidin-5-yl)-2H-pyrazolo[3,4-c]pyridin-2-yl]cyclohexyl}methyl) benzamide, trifluoroacetate salt], 350 nM.

The values are drawn from patent US20240150334A1, “HSD17B13 INHIBITORS AND/OR DEGRADERS” (Pfizer Inc., priority 2022, published 2024).
